From publication PMC7496091, “Small‐Molecule Inhibitors Targeting Sterol 14α‐Demethylase (CYP51): Synthesis, Molecular Modelling and Evaluation Against Candida albicans” (Chemmedchem, 2020) come the findings set out here.

Data set [1] has as its system C. albicans SC5314. The data set is described as follows: MIC, CLSI M27-S4 broth dilution, strain SC5314. It is filed as cell-based, Candida albicans. As to conditions: 48 hours. On the procedure:
The susceptibilities of the SC5314 and CA14C. albicans (azole sensitive) strains to all novel azole derivatives (5, 7 and 12) were determined (Table 3) using the standardized CLSI M27‐S4 broth dilution method.28
Susceptibility testing of C. albicans strains. […] Stock solutions of each agent were prepared in DMSO. Further dilutions were made in RPMI‐1640, and the final concentration of DMSO was 1 % (v/v). The final testing concentrations for all compounds ranged from 0.03–16 μg mL^−1.
(In general: Broth dilution looks for growth in wells or tubes with falling amounts of substance.)

The test system of data set [2] is C. albicans CA14. Description: MIC, CLSI M27-S4 broth dilution, strain CA14. It is filed as cell-based, Candida albicans. The conditions noted are these: 48 hours. The method, then: Susceptibility testing of C. albicans strains. […] Stock solutions of each agent were prepared in DMSO. […] The final testing concentrations for all compounds ranged from 0.03–16 μg mL^−1.

The target of data set [3] is T1, CaCYP51 (Candida albicans, UniProt P10613).
T1 construct: made in house; host or cells: Escherichia coli
T1 sequence (P10613 whole entry): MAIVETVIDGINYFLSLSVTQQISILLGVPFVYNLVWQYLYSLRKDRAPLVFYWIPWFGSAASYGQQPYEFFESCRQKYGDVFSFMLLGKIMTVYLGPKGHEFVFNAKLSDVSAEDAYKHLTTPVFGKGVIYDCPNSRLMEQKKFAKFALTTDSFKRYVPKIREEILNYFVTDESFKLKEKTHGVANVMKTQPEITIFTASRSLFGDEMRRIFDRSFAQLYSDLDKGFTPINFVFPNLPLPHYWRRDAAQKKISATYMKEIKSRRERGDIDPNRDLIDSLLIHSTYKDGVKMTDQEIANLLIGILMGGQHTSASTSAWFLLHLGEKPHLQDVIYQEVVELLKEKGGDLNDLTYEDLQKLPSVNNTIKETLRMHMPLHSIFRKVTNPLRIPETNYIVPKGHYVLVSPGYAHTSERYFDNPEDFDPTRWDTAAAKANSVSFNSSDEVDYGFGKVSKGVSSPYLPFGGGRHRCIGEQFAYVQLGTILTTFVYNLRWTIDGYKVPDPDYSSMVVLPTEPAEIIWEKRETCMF
The data set is described as follows: biochemical. Format: binding. As to conditions: 3 μM native CaCYP51, mean of three replicates ± SD; read-out: K d CaCYP51. The text has this: […]. There were no signs of compound insolubility (visible or rising background absorbance) during the ligand titrations. […] […].
The rearranged Morrison equation34 gave the best fit to the ligand saturation curves against CaCYP51 (Figure 5) indicating the selected compounds bound tightly to the purified CaCYP51 protein in free solution. Likewise the rearranged Morrison equation34 gave the best fit for binding 5 d and 5 f to Δ60HsCYP51, thus indicating tight binding in free solution (Figure 5). […].
Recombinant CYP51 protein studies. […] All azole ligand binding determinations were performed in triplicate, except the binding of compound 12 c with Δ60HsCYP51 which was performed six times. CYP51 protein samples were diluted with 0.1 M Tris⋅HCl (pH 8.1) and 25 % (w/v) glycerol to the required concentration.
Dissociation constant (K d). The K d for each CYP51‐azole complex was determined by non‐linear regression (Levenberg‐Marquardt algorithm) using a rearrangement of the Morrison equation for tight ligand binding.34 Where ligand binding was weaker, the Michaelis‐Menten equation was used to fit the data (Figure S5). K d values were determined for each of the three replicate titrations per azole compound and then mean K d values and standard deviations calculated.

Data set [4] addresses T1, CaCYP51. The data set is described as follows: biochemical. As to conditions: 1 μM CaCYP51, lanosterol as substrate, curve-fitted; read-out: CaCYP51 IC50. The method, then: […]. […] […]. CYP51 reconstitution assays. IC50 values were determined for individual azole compounds18, 30 using lanosterol as substrate. Azoles were introduced using 2.5 μL of stock solutions in DMSO. CaCYP51 assays contained 1 μM CaCYP51 and 2 μM Homo sapiens cytochrome P450 reductase (HsCPR – UniProtKB accession number P16435) and were incubated for 20 min at 37 °C. HsCYP51 assays contained 0.25 μM Δ60HsCYP51 and 1 μM HsCPR and were incubated for 10 min at 37 °C. Each IC50 experiment was performed in duplicate.

[5] abbreviates: Candida albicans, SC5314, 80 % reduction in turbidity.
The mark [6] stands for this setting: Candida albicans, SC5314, value in brackets.
The mark [7] stands for this setting: Candida albicans, CA14, 80 % reduction in turbidity.
The mark [8] stands for this setting: Candida albicans, CA14, value in brackets.

Structures are written as SMILES. Values after ≈ are worked out from the molar mass of the structure shown.

In general, MIC refers to the lowest concentration found to suppress growth. Read a high MIC as weaker potency. In general, melting point refers to the temperature, or range, at which the solid turns liquid. Usually IC50 stands for the midpoint of a concentration-inhibition curve. `O=C(NCc1ccc(F)cc1)C(Cn1ccnc1)c1ccccc1` (centres unmarked) [Compound 5 b, N‐(4‐Fluorobenzyl)‐3‐(1H‐imidazol‐1‐yl)‐2‐phenylpropanamide] yielded a melting point of 100 to 102 °C. In data set [1] (setting [5]), the MIC was 8 µg/mL. For the same molecule, the lowest concentration to inhibit growth in data set [1] (setting [6]) (MIC) was 24.7 µM. The MIC in data set [2] (setting [7]) turned out to be 4 µg/mL. The MIC in data set [2] (setting [8]) was found to be 12.4 µM. Further, in data set [3], the Kd was 87 ± 27 nM. Also, the IC50 in data set [4] was 1410 nM.

Turning to `O=C(NCc1ccc(Cl)cc1)C(Cn1ccnc1)c1ccccc1` (centres unmarked) [Compound 5 c, N‐(4‐Chlorobenzyl)‐3‐(1H‐imidazol‐1‐yl)‐2‐phenylpropanamide], in data set [1] (80 % reduction in turbidity), the “MIC SC5314” value is 8 µg/mL (≈ 23.5 µM). Also, the MIC in data set [1] (value in brackets) worked out at 23.5 µM; in data set [2] (value in brackets), 11.8 µM. In addition, the “MIC CA14” value in data set [2] (80 % reduction in turbidity) worked out at 4 µg/mL (≈ 11.8 µM). For the same molecule, the Kd in data set [3] was 60 ± 4 nM. In data set [4], the concentration for half-maximal inhibition (IC50) came out at 1010 nM.

`O=C(NCc1ccc(Cl)cc1Cl)C(Cn1ccnc1)c1ccccc1` (centres unmarked) [Compound 5 e, N‐(2,4‐Dichlorobenzyl)‐3‐(1H‐imidazol‐1‐yl)‐2‐phenylpropanamide] came in with a melting point of 55 to 57 °C. In data set [1] (setting [5]), this molecule gave an MIC of 1 µg/mL. Further, the MIC in data set [1] (setting [6]) amounted to 2.67 µM. This molecule also returned an MIC in data set [2] (setting [7]) of 1 µg/mL. Moreover, the MIC in data set [2] (setting [8]) is 2.67 µM. Besides, the Kd in data set [3] came out at 83 ± 26 nM. For the same molecule, the IC50 in data set [4] amounted to 990 nM.

As for `Cc1ccc(CNC(=O)C(Cn2ccnc2)c2ccccc2)cc1` (centres unmarked) [Compound 5 g, 3‐(1H‐Imidazol‐1‐yl)‐N‐(4‐methylbenzyl)‐2‐phenylpropanamide], the melting point was 134 to 136 °C. The molecule further registered an MIC in data set [1] (setting [5]) of 8 µg/mL. In data set [1] (setting [6]), this molecule displayed an MIC of 25.1 µM. Also, in data set [2] (setting [7]), 8 µg/mL was the least that counted as inhibitory (MIC). Also, it took 25.1 µM to inhibit growth in data set [2] (setting [8]) (MIC). Moreover, in data set [3], the Kd was 144 ± 47 nM. Further, the IC50 in data set [4] is 2450 nM.

Regarding `O=C(NCc1ccc(C(F)(F)F)cc1)C(Cn1ccnc1)c1ccccc1` (centres unmarked) [Compound 5 h, 3‐(1H‐Imidazol‐1‐yl)‐2‐phenyl‐N‐(4‐(trifluoromethyl)benzyl)propanamide], the MIC in data set [1] (setting [5]) was 4 µg/mL; in data set [1] (setting [6]) it was 10.7 µM; in data set [2] (setting [7]) it was 4 µg/mL; in data set [2] (setting [8]), 10.7 µM. The Kd in data set [3] came to 85 ± 19 nM. Moreover, the IC50 in data set [4] was determined as 2210 nM.

The molecule `COc1ccc(CNC(=O)C(Cn2ccnc2)c2ccccc2)cc1` (centres unmarked) [Compound 5 i, 3‐(1H‐Imidazol‐1‐yl)‐N‐(4‐methoxybenzyl)‐2‐phenylpropanamide] showed a melting point of 102 to 104 °C. This molecule also gave an MIC in data set [1] (setting [5]) of 8 µg/mL. This molecule had an MIC in data set [1] (setting [6]) of 23.9 µM. Also, the MIC in data set [2] (setting [7]) came to 8 µg/mL. For the same molecule, the MIC in data set [2] (setting [8]) amounted to 23.9 µM. Moreover, the Kd in data set [3] stood at 55 ± 10 nM. For the same molecule, in data set [4], the IC50 is 910 nM.

As to `COc1ccc(CNC(=O)C(Cn2ccnc2)c2ccccc2)cc1OC` (centres unmarked) [Compound 5 j, N‐(3,4‐Dimethoxybenzyl)‐3‐(1H‐imidazol‐1‐yl)‐2‐phenylpropanamide], the MIC was over 16 µg/mL in data set [1] (setting [5]), over 43.8 µM in data set [1] (setting [6]), over 16 µg/mL in data set [2] (setting [7]) and over 43.8 µM in data set [2] (setting [8]). Moreover, in data set [4], the IC50 came to 6150 nM.

`O=C(NCc1ccc(Cl)cc1)C(Cn1cncn1)c1ccccc1` (centres unmarked) [Compound 5 k, N‐(4‐Chlorobenzyl)‐2‐phenyl‐3‐(1H‐1,2,4‐triazol‐1‐yl)propanamide]: in data set [1] (80 % reduction in turbidity), the “MIC SC5314” value came to 8 µg/mL (≈ 23.5 µM). The MIC in data set [1] (value in brackets) and in data set [2] (value in brackets) was 23.5 µM in each case. The “MIC CA14” value in data set [2] (80 % reduction in turbidity) stood at 8 µg/mL (≈ 23.5 µM). Besides, the Kd in data set [3] was 167 ± 17 nM. The IC50 in data set [4] was determined as 4320 nM.

Take `C=C(C(=O)NCc1ccc(F)cc1)c1ccccc1` [Compound 6 b, N‐(4‐Fluorobenzyl)‐2‐phenylacrylamide]: the melting point lay within 108 to 110 °C.

In turn, `C=C(C(=O)NCc1ccc(Cl)cc1)c1ccc(Cl)cc1` [Compound 6 d, N‐(4‐Chlorobenzyl)‐2‐(4‐chlorophenyl)acrylamide] had a melting point of 108 to 110 °C.

Molecule `C=C(C(=O)NCc1ccc(Cl)cc1Cl)c1ccccc1` [Compound 6 e, N‐(2,4‐Dichlorobenzyl)‐2‐phenylacrylamide] came in with a melting point of 66 to 68 °C.

With `C=C(C(=O)NCc1ccc(Cl)cc1Cl)c1ccc(Cl)cc1` [Compound 6 f, 2‐(4‐Chlorophenyl)‐N‐(2,4‐dichlorobenzyl)acrylamide], the melting point fell in the range of 104 to 106 °C.

Take `C=C(C(=O)NCc1ccc(C)cc1)c1ccccc1` [Compound 6 g, N‐(4‐Methylbenzyl)‐2‐phenylacrylamide]: the melting point lay within 92 to 94 °C.

In turn, `C=C(C(=O)NCc1ccc(C(F)(F)F)cc1)c1ccccc1` [Compound 6 h, 2‐Phenyl‐N‐(4‐(trifluoromethyl)benzyl)acrylamide] had a melting point of 88 to 90 °C.

`C=C(C(=O)NCc1ccc(OC)cc1)c1ccccc1` [Compound 6 i, N‐(4‐Methoxybenzyl)‐2‐phenylacrylamide] returned a melting point of 100 to 102 °C.

`C=C(C(=O)NCc1ccc(OC)c(OC)c1)c1ccccc1` [Compound 6 j, N‐(3,4‐Dimethoxybenzyl)‐2‐phenylacrylamide] registered a melting point of 102 to 104 °C.

In turn, `C=C(C(=O)NCc1ccc(NC(=O)OC(C)(C)C)cc1)c1ccccc1` [Compound 6 l, tert‐Butyl (4‐((2‐phenylacrylamido)methyl)phenyl)carbamate] displayed a melting point of 136 to 138 °C.

As to `Nc1ccc(CNC(=O)C(Cn2cncn2)c2ccccc2)cc1.O=C(O)C(F)(F)F` (centres unmarked) [Compound 7], in data set [1] (80 % reduction in turbidity), the “MIC SC5314” value was over 16 µg/mL. For the same molecule, the MIC in data set [1] (value in brackets) and in data set [2] (value in brackets) was over 36.8 µM each time. In data set [2] (80 % reduction in turbidity), the “MIC CA14” value is over 16 µg/mL. Also, in data set [4], the IC50 is 1960 nM.

As for `O=C(NCc1ccc(NS(=O)(=O)c2ccccc2)cc1)C(Cn1cncn1)c1ccccc1` (centres unmarked) [Compound 12 a, 2‐Phenyl‐N‐(4‐(phenylsulfonamido)benzyl)‐3‐(1H‐1,2,4‐triazol‐1‐yl)propanamide], the melting point lay in the range of 96 to 98 °C. Besides, inhibition of growth in data set [1] (setting [5]) (MIC) required 4 µg/mL. This molecule showed an MIC in data set [1] (setting [6]) of 8.67 µM. Besides, in data set [2] (setting [7]), 4 µg/mL was the least that counted as inhibitory (MIC). In addition, the MIC in data set [2] (setting [8]) amounted to 8.67 µM. Moreover, the Kd in data set [3] came to 115 ± 16 nM. Also, in data set [4], the IC50 stood at 540 nM.

With `O=C(NCc1ccc(NS(=O)(=O)c2ccc(F)cc2)cc1)C(Cn1cncn1)c1ccccc1` (centres unmarked) [Compound 12 b, N‐(4‐((4‐Fluorophenyl)sulfonamido)benzyl)‐2‐phenyl‐3‐(1H‐1,2,4‐triazol‐1‐yl) propanamide], the “MIC SC5314” value in data set [1] (80 % reduction in turbidity) came out at 4 µg/mL (≈ 8.34 µM). For the same molecule, the figures for the MIC in data set [1] (value in brackets) and in data set [2] (value in brackets) were 8.34 µM and 4.17 µM, respectively. In addition, the “MIC CA14” value in data set [2] (80 % reduction in turbidity) was found to be 2 µg/mL (≈ 4.17 µM). For the same molecule, the Kd in data set [3] turned out to be 55 ± 27 nM. In data set [4], the IC50 stood at 200 nM.

As to `COc1ccc(S(=O)(=O)Nc2ccc(CNC(=O)C(Cn3cncn3)c3ccccc3)cc2)cc1` (centres unmarked) [Compound 12 d, 2‐Phenyl‐N‐(4‐(4‐methoxyphenylsulfonamido)benzyl)‐3‐(1H‐1,2,4‐triazol‐1‐yl)propanamide], the MIC in data set [1] (setting [5]) stood at 8 µg/mL; in data set [1] (setting [6]), 16.3 µM; in data set [2] (setting [7]), 4 µg/mL; in data set [2] (setting [8]), 8.14 µM. Besides, in data set [3], the Kd came to 110 ± 22 nM. Further, the IC50 in data set [4] turned out to be 790 nM.

In the case of `C=C(C(=O)NCc1ccc(NS(=O)(=O)c2ccc(F)cc2)cc1)c1ccccc1` [Compound 13 b, N‐(4‐((4‐Fluorophenyl)sulfonamido)benzyl)‐2‐phenylacrylamide], the melting point fell in the range of 136 to 138 °C.

The molecule `C=C(C(=O)NCc1ccc(NS(=O)(=O)c2ccc(OC)cc2)cc1)c1ccccc1` [Compound 13 d, N‐(4‐((4‐Methoxyphenyl)sulfonamido)benzyl)‐2‐phenylacrylamide] gave a melting point of 98 to 100 °C.
